By Kd is commonly meant the free concentration of one partner at which half of the binding sites on the other are occupied at equilibrium, for simple one-to-one binding. Low values mean higher affinity, high ones lower affinity.

A short description of series [1]: Stability of the radiopharmaceutical post-labelling (radiochemical purity). It is filed as physicochemical. The settings on record: for more than 7 days post-labelling. The method, then: After reconstitution in 1.1 mL sodium acetate 1 M buffer solution pH 5.0 containing the sterile and pyrogen-free solution of lutetium-177 chloride (^177LuCl3) and incubation in a dry bath at 95° C. for 30 minutes, said formulation gave a clear, aqueous solution of the compound to be patented ^177Lu-DOTA-HYNIC-iPSMA (FIG. 1) with a radiochemical purity of more than 98%, as determined by reverse-phase HPLC, which presents the radio-chromatogram shown in FIG. 3.
(§1) The radiopharmaceutical remains stable, with a radiochemical purity of more than 98% for more than 7 days post-labelling. In vitro stability tests in human serum show a serum protein binding of 6.5±1.8% and a high radiochemical stability (>98%).

Series [2] in a line: In vitro stability tests in human serum. It is filed as in vitro ADME.
Description: as §1

A further series deals with T1, protein PSMA (Homo sapiens, UniProt Q04609).
T1 construct: saturation studies in cancer cells positive for the protein PSMA (LNCaP); endogenous in cells; host or cells: LNCaP
In words: Saturation studies in cancer cells positive for the protein PSMA (LNCaP). The class given is binding.

A short description of series [3]: Toxicity in balb-C laboratory mice. The class given is in vivo. The settings on record: dose of 40 mg/kg.
A further series concerns LNCaP-induced tumors. In words: Biodistribution assays in nude mice with LNCaP-induced tumors. The class given is in vivo.
Series [4] is described as follows: Biokinetics and dosimetry in healthy subjects (whole-body images, OLINDA/EXM). The class given is in vivo, human. The method, then:
To determine the biokinetics and dosimetry for the radiopharmaceutical, whole-body images were acquired for five healthy subjects at 20 mins and 6, 24, 48 and 120 h post-administration of ^177Lu-DOTA-HYNIC-iPSMA (185 MBq). The sequence of images was used to extrapolate the time-activity curves in each organ to adjust the biokinetic model and calculate the total number of disintegrations (N) that occurred in the source regions. The values of N were used in the OLINDA/EXM code to calculate the internal doses of radiation. […] Uptake and excretion is mainly renal, with lower hepatic uptake and high uptake in the […], salivary, and lachrymal glands. The average doses absorbed were 0.23, 0.28, 0.88, and 1.17 mGy/MBq for the spleen, liver, kidney, and salivary glands, respectively.

Series [5] relates to metastatic prostate cancer lesions. The series can be described thus: Radiotherapeutic potential in prostate cancer patients (68Ga-PSMA-11 PET/CT and serum PSA). It is filed as in vivo, human. The method, then:
To evaluate the radiotherapeutic potential, between one and four cycles of ^177Lu-DOTA-HYNIC-iPSMA (3.7 or 7.4 GBq) were administered to 11 patients (mean age: 66 years; range: 45-86) every 8-10 weeks. The response was evaluated using images with ^68Ga-PSMA-11 PET/CT (radiopharmaceutical with a proven affinity in clinical practice and a high-resolution technique for the specific detection of metastatic prostate cancer lesions) and determining serum prostate-specific antigen (PSA) levels before and after treatment.

The next series concerns prostate cancer. The settings on record: clinical studies, literature; cited from earlier work.

T1 sequence (Q04609 whole entry): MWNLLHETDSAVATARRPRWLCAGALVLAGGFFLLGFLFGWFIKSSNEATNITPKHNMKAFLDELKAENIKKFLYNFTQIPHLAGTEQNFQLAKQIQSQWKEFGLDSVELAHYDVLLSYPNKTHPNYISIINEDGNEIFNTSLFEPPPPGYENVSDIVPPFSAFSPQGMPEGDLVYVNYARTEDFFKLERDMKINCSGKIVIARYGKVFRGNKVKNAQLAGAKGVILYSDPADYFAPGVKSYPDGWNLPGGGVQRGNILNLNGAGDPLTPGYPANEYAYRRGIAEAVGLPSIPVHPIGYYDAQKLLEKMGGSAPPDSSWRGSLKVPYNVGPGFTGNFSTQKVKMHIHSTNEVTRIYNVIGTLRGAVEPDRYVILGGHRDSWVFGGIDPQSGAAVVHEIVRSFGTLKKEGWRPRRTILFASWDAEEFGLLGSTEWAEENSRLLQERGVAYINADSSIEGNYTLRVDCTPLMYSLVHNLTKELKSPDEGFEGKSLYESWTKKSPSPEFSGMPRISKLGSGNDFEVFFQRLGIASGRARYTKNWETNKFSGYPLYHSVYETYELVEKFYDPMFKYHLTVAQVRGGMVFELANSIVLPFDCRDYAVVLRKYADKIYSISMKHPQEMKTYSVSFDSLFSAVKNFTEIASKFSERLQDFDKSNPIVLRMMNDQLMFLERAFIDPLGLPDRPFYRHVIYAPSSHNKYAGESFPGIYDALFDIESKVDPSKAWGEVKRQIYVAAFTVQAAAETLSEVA

Regarding `O=C(O)CCC(NC(=O)NC(CCCCNC(=O)C(Cc1ccc2ccccc2c1)NC(=O)c1ccc(NNC(=O)CN2CCN3CCN4CCN(CC2)CC(=O)[O][177Lu]([O]C(=O)C3)[O]C(=O)C4)nc1)C(=O)O)C(=O)O` (centres unmarked) [177Lu-DOTA-HYNIC-iPSMA], the “radiochemical purity (stability post-labelling)” value in series [1] is on record as “more than 98%”. In addition, in series [2], the radiochemical stability result is “more than 98%” and the serum protein binding came to 6.5±1.8%. Moreover, the “maximum number of binding sites (Bmax)” value on protein PSMA amounted to 5.89 ± 0.47 nM. In addition, the “toxicity or adverse effects” value in series [3] was “did not present toxicity or adverse effects”. For the same compound, in the series on LNCaP-induced tumors, the elimination pathway entry was “mainly renal” and the “uptake in tumors, % of the activity administered per gram of tissue” value was 9.74±1.13 % ID/g. For the same compound, the “average dose absorbed, kidney” value in series [4] (healthy subjects, kidney) is reported as 0.88 mGy/MBq. In series [4] (healthy subjects, liver), the “average dose absorbed, liver” value turned out to be 0.28 mGy/MBq. Also, the “average dose absorbed, salivary glands” value in series [4] (healthy subjects, salivary glands) was determined as 1.17 mGy/MBq. For the same compound, the “average dose absorbed, spleen” value in series [4] (healthy subjects, spleen) is given as 0.23 mGy/MBq. Besides, the uptake and excretion result in series [4] (healthy volunteers) is “mainly renal”. For the same compound, in series [4] (healthy volunteers, 185 MBq, ln 2/0.008), the “half life, second slow component (T1/2γ)” value came out at 79.6 h. Moreover, the “half life, first slow component (T1/2β)” value in series [4] (healthy volunteers, 185 MBq, ln 2/0.075) is recorded as 9.2 h. Also, in series [4] (healthy volunteers, 185 MBq, ln 2/0.614), the “half life, fast component (T1/2α)” value was 1.1 h. Moreover, the “patients exhibiting a reduction in PSA” value in series [5] (11 patients, one to four cycles of 3.7 or 7.4 GBq every 8-10 weeks) is on record as “Around 60%”. The “patients with a reduction in the number and size of metastatic lesions and/or uptake intensity, by imaging” value in series [5] (11 patients, one to four cycles of 3.7 or 7.4 GBq, 68Ga-PSMA-11 PET/CT) was found to be 70%. Besides, the “metastatic lesion sites on 68Ga-PSMA-11 PET follow-up” value in series [5] (one patient, three cycles of treatment (FIG. 6)) was “decrease in size and number”.
For `O=C(O)CCC(NC(=O)NC(CCCCNC(=O)C(Cc1ccc2ccccc2c1)NC(=O)c1ccc(NNC(=O)CN2CCN3CCN4CCN(CC2)CC(=O)[O][Lu]([O]C(=O)C3)[O]C(=O)C4)nc1)C(=O)O)C(=O)O` (centres unmarked) [177Lu-DOTA-HYNIC-iPSMA], at protein PSMA, the Kd turned out to be 6.33 ± 2.69 nM.
For `O=C([O-])CN1CCN(CC(=O)[O-])CCN(CC(=O)NCC2CCC(C(=O)N[C@@H](Cc3ccc4ccccc4c3)C(=O)NCCCC[C@H](NC(=O)N[C@@H](CCC(=O)O)C(=O)O)C(=O)O)CC2)CCN(CC(=O)[O-])CC1.[177Lu+3]` (some centres unmarked) [Lu-PSMA-617], the side-effects entry in the series on prostate cancer is given as “no severe side-effects”.

The values above are taken from patent US12128114B2, “177Lu-DOTA-HYNIC-iPSMA as a therapeutic radiopharmaceutical targeting prostate-specific membrane antigen” (INSTITUTO NACIONAL DE INVESTIGACIONES NUCLEARES, priority 2018, dated 2024).
